Assay results taken from patent publication US20150306045A1, “METHOD OF REGULATING CIRCADIAN RHYTHM, AND METHOD OF PREPARING CIRCADIAN RHYTHM REGULATORY AGENT” (National Institute of Advanced Industrial Science & …, priority 2012, published 2015).

Test system: clock gene Bmall promoter in NIH3T3 cells
Experiment: Bmall promoter luciferase reporter, influence on expression of circadian clock gene (Test Example 1)
Assay type: cell-based, mouse
Conditions: Example 1, 12.5 μM in medium, NIH3T3, vs ethanol control, FIG. 1
Method: The circadian rhythm regulatory agents of Examples 1 to 3 (i.e., 1,3-dihydroxy-5-n-pentadecylbenzene, alkylresorcinol-containing ethanolic bran extract, and alkylresorcinol-containing ethanolic rye extract) were evaluated for the influence on expression of circadian clock gene in accordance with the following test method.
To prepare a recombination vector, the promoter regions of a clock gene Bmall (−97 to +27 regions including the RORE sequence and the transcription initiation site) were inserted into a luciferase luminescence vector containing a PEST sequence serving as a signal for rapid degradation of expressed proteins (pGL3-dLuc, from Promega). About 5×10^5 cells of mouse fibroblast cell line NIH3T3 were inoculated into a 35 mm diameter culture dish. […]
Screening of candidate substances was performed using the culture cells. […] Then, a test substance was added to a medium containing a luciferin, (a luminescence substrate of […]), and chemiluminescence by the reporter genes was measured in real-time while continuing the cell culture. […] As a control, ethanol, which is the solvent of the test substance, was added at the same timing, and the changes in amount of luminescence were compared. Luminescence was measured for one minute at 10 minute interval using AB-2550 Kronos Dia from ATTO Corp.

CCCCCCCCCCCCCCCc1cc(O)cc(O)c1 [Example 1, 1,3-Dihydhroxy-5-n-pentadecylbenzene (C15:0)]
circadian rhythm phase of Bmall expression: delays the circadian rhythm phase | shortening of the cycle of Bmall expression rhythm: 0.5 h
